Experimental findings from ChEMBL document CHEMBL1201862, “PubChem BioAssay data set” (2004) are described below.

Among the test systems are 786-0; A498; A549; ACHN; CCRF-CEM; COLO 205; HCT-15; HT-29; KM12; LOX IMVI; MCF7; MDA-MB-231; Malme-3M; NCI-H226; OVCAR-4; SF-295; SK-MEL-2; SNB-75; SR; UACC-62.
Holding throughout (experiment): inhibition of tumour cell growth, NCI panel, 48 h

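Exposure lasted 48 hours, with cells grown in 96-well plates and compounds tested at five concentrations. Here, GI50 denotes the concentration required for 50% inhibition of growth.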 Active and inactive are the calls of the source. No stated cut-off is given here; in the data, active = GI50 up to about 1.1 µM and inactive = higher. Peptide text beside a SMILES is read from it. * marks the point of attachment. Cbz = O=C(OCc1ccccc1)*; CH2Cl = ClC*

Consider `CC(C)CC(NC(=O)OCc1ccccc1)C(=O)NC(Cc1ccccc1)C(=O)CCl` (stereo not drawn) (Cbz-Leu-Phe-CH2Cl; configuration not given here), for which the GI50 in the test on 786-0 is 1.66 µM (inactive); in the test on A498, 23.6 µM (inactive); in the test with A549, 15.9 µM (inactive); with ACHN, 4.25 µM (inactive); in the test on CCRF-CEM, 0.204 µM (active); in the test on COLO 205, 2.93 µM (inactive). Further, the GI50 was 1.66 µM in the test with HCT-15; 2.68 µM (inactive) with HT-29; 9.77 µM (inactive) with KM12; 0.719 µM (active) in the test with LOX IMVI; 2.55 µM (inactive) in the test with MCF7; 1.69 µM (inactive) with MDA-MB-231. Besides, the GI50 in the test with Malme-3M was 1.92 µM (inactive); in the test on NCI-H226, 1.91 µM (inactive); in the test on OVCAR-4, 2.08 µM (inactive); in the test with SF-295, 17.5 µM (inactive); in the test on SK-MEL-2 it was 2.05 µM (inactive); in the test with SNB-75, 4.78 µM (inactive). Besides, the GI50 was 0.501 µM (active) in the test on SR and 2.71 µM (inactive) with UACC-62.

`CCOC(=O)NC(Nc1ccc(F)cc1)(C(=O)OCC)C(F)(F)F` (stereo not given): the GI50 in the test on 786-0 is > 100 µM (inactive); in the test with A498 it was > 100 µM (inactive); in the test with A549, 10.5 µM (inactive); in the test with ACHN, 2.62 µM (inactive); in the test on CCRF-CEM, 3.28 µM (inactive); in the test with COLO 205, > 26 µM (inactive). The GI50 in the test with HCT-15 is 29.6 µM; in the test on HT-29 it was > 100 µM (inactive); in the test with KM12 it was 0.556 µM (active); in the test with LOX IMVI it was 0.153 µM (active); in the test with MCF7 it was > 66.7 µM (inactive); in the test on MDA-MB-231 it was > 100 µM (inactive). Besides, the GI50 is > 100 µM (inactive) in the test with Malme-3M; > 100 µM (inactive) in the test on NCI-H226; > 50.8 µM (inactive) with OVCAR-4; 8.38 µM (inactive) in the test with SF-295; 0.982 µM (active) in the test on SK-MEL-2; > 100 µM (inactive) in the test on SNB-75. In addition, the GI50 in the test on SR was > 100 µM (inactive); in the test on UACC-62, 0.121 µM (active).

For the compound `N#Cc1ccc(NC(=O)C(CC(=O)OCc2ccccc2)NC(=O)OCc2ccccc2)cc1` (stereo not given), the GI50 in the test with 786-0, with A498, in the test with A549, in the test with ACHN, in the test with CCRF-CEM and in the test on COLO 205 was > 10 µM (inactive) in each case. The GI50 in the test on HCT-15 was greater than 10 µM; with HT-29, > 10 µM (inactive); in the test with KM12, > 10 µM (inactive); in the test on LOX IMVI it was > 10 µM (inactive); in the test with MCF7, > 10 µM (inactive); in the test with MDA-MB-231, > 10 µM (inactive). The GI50 with Malme-3M was 5.74 µM (inactive); in the test on NCI-H226, > 10 µM (inactive); in the test with OVCAR-4 it was > 10 µM (inactive); in the test on SF-295, > 10 µM (inactive); in the test with SK-MEL-2, > 100 µM (inactive); in the test with SNB-75, > 10 µM (inactive). Further, the GI50 in the test on SR and in the test with UACC-62 was > 10 µM (inactive) each time.

For `COc1ccc(Nc2nc3cc(C(F)(F)F)ccc3nc2C(=O)O)cc1OC`, the GI50 with 786-0 is 31 µM (inactive); in the test on A498, 30.7 µM (inactive); in the test with A549, 41.3 µM (inactive); in the test with ACHN, 26.7 µM (inactive); with CCRF-CEM, 16.2 µM (inactive); in the test with COLO 205, 27.9 µM (inactive). The GI50 in the test with HCT-15 was 35.6 µM; in the test on HT-29 it was 40.2 µM (inactive); in the test on KM12, 27.8 µM (inactive); in the test with LOX IMVI, 28.9 µM (inactive); in the test on MCF7, 45.2 µM (inactive); with MDA-MB-231, 29 µM (inactive). In addition, the GI50 with Malme-3M is 42.9 µM (inactive); in the test with NCI-H226, 16.4 µM (inactive); in the test on OVCAR-4 it was 35.4 µM (inactive); with SF-295 it was 10.5 µM (inactive); in the test with SK-MEL-2 it was 11.1 µM (inactive); with SNB-75 it was 62.7 µM (inactive). In addition, the figures for the GI50 in the test on SR and with UACC-62 were 25.1 µM (inactive) and 23.7 µM (inactive), respectively.

Regarding `C=CCN1C(=O)/C(=C/c2ccco2)N=C1SC/C=C/C`, the GI50 with 786-0 was 28.2 µM (inactive); in the test with A498, 43.3 µM (inactive); with A549 it was 49.3 µM (inactive); in the test with ACHN it was 35.4 µM (inactive); in the test on CCRF-CEM it was 45.9 µM (inactive); in the test with COLO 205, 36 µM (inactive). Moreover, the GI50 in the test on HCT-15 is 35.7 µM; with HT-29, 40.4 µM (inactive); in the test on KM12 it was 39.6 µM (inactive); with LOX IMVI, 26.5 µM (inactive); with MCF7, 18.6 µM (inactive); with MDA-MB-231 it was 67.9 µM (inactive). Also, the GI50 in the test with Malme-3M was 44.4 µM (inactive); with NCI-H226 it was > 100 µM (inactive); with OVCAR-4, 60.5 µM (inactive); in the test with SF-295 it was 40.4 µM (inactive); in the test with SK-MEL-2, 29.4 µM (inactive); with SNB-75, 33.8 µM (inactive). For the same compound, the GI50 in the test on SR is 21.6 µM (inactive); in the test with UACC-62, 25.9 µM (inactive).

For `CCCNc1[nH]c(C(=O)c2ccccc2)c(N)c1C(=S)Nc1ccccc1`, the GI50 in the test with 786-0, in the test on A498, in the test on A549, in the test with ACHN, with CCRF-CEM and with COLO 205 was > 100 µM (inactive) each time. Also, the GI50 is greater than 100 µM with HCT-15; > 100 µM (inactive) with HT-29; > 100 µM (inactive) in the test on KM12; > 100 µM (inactive) in the test with LOX IMVI; > 100 µM (inactive) with MCF7; > 100 µM (inactive) in the test on MDA-MB-231. For the same compound, the GI50 in the test on Malme-3M, in the test on NCI-H226, in the test with OVCAR-4, in the test with SF-295, with SK-MEL-2 and with SNB-75 was > 100 µM (inactive) in each case. Moreover, the GI50 with SR and with UACC-62 was > 100 µM (inactive) in each case.

As for `CCCCCCCCCCCCCCCCCCNC(=O)OCC(CNS(=O)(=O)CCC[n+]1cccc2ccccc21)COC` (stereo not given), the GI50 in the test on 786-0 is 3.45 µM (inactive); with A498, 10.9 µM (inactive); in the test on A549 it was 1.47 µM (inactive); in the test on ACHN, 6.75 µM (inactive); with CCRF-CEM, 1.06 µM (active); in the test on COLO 205, 0.435 µM (active). Moreover, the GI50 is 23.7 µM with HCT-15; 0.565 µM (active) in the test on HT-29; 1.84 µM (inactive) in the test on KM12; 2.01 µM (inactive) with LOX IMVI; 1.55 µM (inactive) in the test on MCF7; 1.82 µM (inactive) in the test on MDA-MB-231. Also, the GI50 was 3.74 µM (inactive) with Malme-3M; 1.05 µM (active) in the test with NCI-H226; 1.31 µM (inactive) in the test with OVCAR-4; 2.6 µM (inactive) in the test with SF-295; 1.9 µM (inactive) with SK-MEL-2; 2.47 µM (inactive) in the test on SNB-75. Further, the GI50 in the test with SR is 2.04 µM (inactive); in the test on UACC-62, 1.96 µM (inactive).
